Measured values published in US4803209A, “Substituted 2,3-diphenyl-1,2-dihydroquinoxalines” (International Minerals & Chemical Corp., priority 1987, dated 1989).
Read-outs that look alike come from different tables or passages of the source.

Experiments:
Salmonella typhimurium = assay type: cell-based
[1] = test system: antibiotic resistant E. coli (E.C. 324); assay type: cell-based; details: Gram Neg., 6 h, 37° C., aerobic
[2] = test system: E. coli strain 046 (E.C. 046); assay type: cell-based
[3] = test system: Streptococcus sp. 1 X C15 (Strep C15); assay type: cell-based
[4] = test system: Streptococcus sp. 1 X A7 (Strep A7); assay type: cell-based
[5] = test system: Clostridium perfringens (Cp); assay type: cell-based; details: Anaerobic, 6 h, 37° C.
[6] = test system: Bacteroides fragilis (Bf); assay: Antimicrobial growth inhibition, Bf; assay type: cell-based; details: Anaerobic, 6 h, 37° C.
anaerobic bacteria = assay type: cell-based
[7] = Growth promotion and feed utilization in chicks; assay type: in vivo, chicks (broiler cockerels)
[8] = test system: Eimeria tenella Eli Lilly Strain 65 (Lilly 65); assay: In vitro anticoccidial test in chick kidney cell monolayers; assay type: cell-based; details: 72 h, 3 days, read-out: % Inhibition of Coccidia
kidney cell monolayer = assay: Toxicity to cultured kidney cell monolayer in the in vitro anticoccidial test; assay type: cell-based, chick; parameters: key: T: toxic (inhibited kidney cell monolayer formation); details: 3 days
Description: For in vitro screen tests, Hubbard X Hubbard chicks were maintained on drug-free starter diets in brooders in a coccidia-free room. Water was available ad libitum. At 2-3 weeks of age, 3-6 chicks were sacrificed by decapitation and bled. All tissue culture preparation, propagation and test steps were carried out using strict aseptic techniques. Kidney cells next were combined in a single sterile tube and evenly dispersed by agitation. An appropriate dilution (usually 1/10X to 1/25X) was counted microscopically in a hemocytometer and the cell suspension diluted in 500 ml sterile bottles to 200,000 to 250,000 cells/ml of growth medium. Multiwell tissue culture plates (Falcon No. 3008 or Costar No. 3524) were employed in all in vitro screen tests. Immediately after preparation of the kidney cell suspension, each of the 24 wells of 20 to 60 multiwell plates was inoculated with 1 ml of cells using a sterile syringe-type continuous pipettor (Cornwall). Plates then were incubated at once in a 5% CO2 incubator at 39° C. and ≥80% humidity. At about 24 hours one plate was removed and briefly examined for monolayer initiation under phase microscopy at 200X. At 40-48 hours monolayer growth was well initiated and satisfactory for initiation of drug tests. At this time attached cells were spreading and putting out arm-like projections in many areas of each well. The medium on plates which would not be used for drug tests at this time was replaced with prewarmed EBSS plus antibiotics, and these plates were returned to the incubator until time of use 24 to 48 hours later. The latter step was incorporated to remove debris and toxins from the young cell monolayers and also delay monolayer growth until initiation of drug tests. For each test compound an estimated 10 mg of test compound was placed in a 15×150 mm disposable screw-cap test tube (Belco No. 2009-16150). In a typical test employing 25 multiwell plates, tubes containing test compounds were set up and four drops of dimethylsulfoxide (DMSO) were added to each tube. Next 10 ml sterile distilled water was added to each tube and the tubes were capped tightly and mixed by agitation. Primary compound solutions containing about 1000 ppm test compound were serially diluted in disposable tubes (Falcon No. 2051) containing 1/2 strength growth medium, to yield the concentrations shown in Table 3 below. Sterile 1 cc disposable syringes (Tomac) were employed both for making dilutions and adding test compounds to plates. In setting up drug tests, five multiwell plates containing 48-96 hr monolayers were removed as a group from the incubator. The medium was quickly poured off one multiwell plate and 0.5 ml of the lowest dilution of test compound was added to each of two wells in the first column of wells, and an equal volume of a higher dilution of the same substance was added to the remaining two wells in the same column. This procedure was repeated with the next test substance using the wells in the second column on the plate. Dilutions of the remaining test substances were placed in corresponding columns of the plate. After compounds had been added to the first set of five plates, 0.5 ml of a 2×10^5 /ml suspension of sporozoites was added to each well of each plate using a sterile continuous pipettor. To minimize the effects of exposing growth medium to the atmosphere, all additions were made rapidly and inoculated plates were immediately returned to the incubator. Three days after drug and sporozoite addition, plates were removed a few at a time from the incubator for enumeration of parasites. […] The medium was quickly discarded and counts made under phase microscopy at 200X of the total numbers of schizonts and […] per field in each of five random fields. The average number of parasites per field was then calculated. The results of the in vitro anticoccidial tests, which are given in Table 3 below, show the compounds to have toxic effects upon cultured cells.

[9] = experiment set 5, 75 ppm in feed, 8 weeks

| SMILES | inhibition at 0.001 ppm [8] | inhibition at 0.01 ppm [8] | inhibition at 0.1 ppm [8] | inhibition at 1 ppm [8] | % Inhibition of Coccidia: T = toxic (kidney cell monolayer; 10.0 ppm) | % Inhibition of Coccidia: T = toxic (kidney cell monolayer; 100 ppm) | further results |
| --- | --- | --- | --- | --- | --- | --- | --- |
| Oc1ccc(Cl)cc1C1=Nc2cc(Cl)c(Cl)cc2NC1c1cc(Cl)ccc1O (stereo not drawn) [Example 1, 2,3-Di(2-hydroxy-5-chlorophenyl)-6-7-dichloro-1,2-dihydroquinoxaline] | 53% | 67% | 61% | 98% | T | T | Growth of S.T. in the presence of the test compound (Salmonella typhimurium; 6.4 ppm): +; Growth of S.T. in the presence of the test compound (Salmonella typhimurium; 64 ppm): +; Growth of E.C. 324 in the presence of the test compound ([1]; 6.4 ppm): +; Growth of E.C. 324 in the presence of the test compound ([1]; 64 ppm): +; Growth of E.C. 046 in the presence of the test compound ([2]; 6.4 ppm): +; Growth of E.C. 046 in the presence of the test compound ([2]; 64 ppm): +; Growth of Strep C15 in the presence of the test compound ([3]; 6.4 ppm): +; Growth of Strep C15 in the presence of the test compound ([3]; 64 ppm): +; Growth of Strep A7 in the presence of the test compound ([4]; 6.4 ppm): +; Growth of Strep A7 in the presence of the test compound ([4]; 64 ppm): +; Growth of Cp in the presence of the test compound ([5]; 6.4 ppm): -; Growth of Cp in the presence of the test compound ([5]; 64 ppm): -; Growth of Bf in the presence of the test compound ([6]; 6.4 ppm): -; Growth of Bf in the presence of the test compound ([6]; 64 ppm): -; activity against anaerobic bacteria (anaerobic bacteria): possessed activity against both anaerobic microorganisms; feed efficiency (% better or worse than control) [7, 9]: 13%; weight gain (% better or worse than control) [7, 9]: 6%; growth promotion / feed efficiency ([7]; in vivo): found to improve both weight gain and feed efficiency |
| Oc1ccccc1C1=Nc2cc(Cl)c(Cl)cc2NC1c1ccccc1O (stereo not drawn) [Example 2, 2,3-di(2-hydroxyphenyl)-6,7-dichloro-1,2-dihydroquinoxaline] | 42% | 71% | 89% | 100% | T | T |  |
| Oc1ccc(Cl)cc1C1=Nc2ccccc2NC1c1cc(Cl)ccc1O (stereo not drawn) [Example 5, 2,3-di(2-hydroxy-5-chlorophenyl)-1,2-dihydroquinoxaline] | 1% | 0% | 6% | 31% |  | T | inhibition at 10 ppm ([8]; 10.0 ppm): 100% |
| COc1ccc(C2=Nc3cc(C)c(C)cc3NC2c2ccc(OC)cc2O)c(O)c1 (stereo not drawn) [Example 8, 2,3-di(2-hydroxy-4-methoxyphenyl)-6,7-dimethyl-1,2-dihydroquinoxaline] | 0% | 9% | 12% | 99% | T | T |  |
